Results published in patent publication US9708308B2, “Factor IXa inhibitors” (Merck Sharp & Dohme Corp., priority 2012, dated 2017).

Biological target: Factor IXa (Homo sapiens, UniProt P00740)
Test: Determination of inhibitory activity against Factor IXa (cleavage of fluorescent peptide substrate)
Format: biochemical
Conditions: cleavage of fluorescent peptide CH3SO2-D-CHG-Gly-Arg-AFC, release of AFC; read-out: FIXa IC50
Outline: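 Factor IXa activity followed via cleavage of CH3SO2-D-CHG-Gly-Arg-AFC, releasing AFC. Fluorescence read at excitation 405 nm, emission 510 nm.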

Sequence of Factor IXa (P00740 227-461 limits assumed): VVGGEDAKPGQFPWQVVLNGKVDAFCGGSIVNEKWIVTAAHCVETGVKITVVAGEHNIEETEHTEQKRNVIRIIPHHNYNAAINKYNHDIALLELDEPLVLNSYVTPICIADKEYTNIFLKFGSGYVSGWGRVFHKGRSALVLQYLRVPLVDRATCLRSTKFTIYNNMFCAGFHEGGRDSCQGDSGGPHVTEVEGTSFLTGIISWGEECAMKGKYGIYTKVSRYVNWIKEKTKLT
Sequence of Factor IXa (P00740 47-191 partner limits assumed): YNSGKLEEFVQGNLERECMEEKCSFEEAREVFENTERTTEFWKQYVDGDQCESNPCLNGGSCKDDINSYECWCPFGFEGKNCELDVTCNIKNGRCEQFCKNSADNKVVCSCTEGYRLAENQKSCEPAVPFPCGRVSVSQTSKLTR

Going from `C[C@@H]1CN(c2ccn(-c3ccnc(C#N)c3)n2)C(=O)[C@@H]([C@@H](O)C(=O)Nc2ccc3c(N)noc3c2)O1` [Example 165, (R)—N-(3-aminobenzo[d]isoxazol-6-yl)-2-((2R,6R)-4-(1-(2-cyanopyridin-4-yl)-1H-pyrazol-3-yl)-6-methyl-3-oxomorpholin-2-yl)-2-hydroxyacetamide] to `COc1cc(-n2ccc(N3C[C@H](C)O[C@H]([C@@H](O)C(=O)Nc4ccc5c(N)noc5c4)C3=O)n2)ccn1` [Example 167, (R)—N-(3-aminobenzo[d]isoxazol-6-yl)-2-hydroxy-2-((2R,6S)-4-(1-(2-methoxypyridin-4-yl)-1H-pyrazol-3-yl)-6-methyl-3-oxomorpholin-2-yl)acetamide], the IC50 rises from 1.98 nM to 17.8 nM (9-fold). The first is the more potent here.

Compared with `C[C@@H]1CN(c2ccn(-c3ccncc3)n2)C(=O)[C@@H]([C@@H](O)C(=O)Nc2ccc3c(N)noc3c2)O1` [Example 166, (R)—N-(3-aminobenzo[d]isoxazol-6-yl)-2-hydroxy-2-((2R,6R)-6-methyl-3-oxo-4-(1-(pyridin-4-yl)-1H-pyrazol-3-yl)morpholin-2-yl)acetamide], `COc1cc(-n2ccc(N3C[C@@H](C)O[C@H]([C@@H](O)C(=O)Nc4ccc5c(N)noc5c4)C3=O)n2)ccn1` [Example 168, (R)—N-(3-aminobenzo[d]isoxazol-6-yl)-2-hydroxy-2-((2R,6R)-4-(1-(2-methoxypyridin-4-yl)-1H-pyrazol-3-yl)-6-methyl-3-oxomorpholin-2-yl)acetamide] is 1.7-fold higher in IC50: 3.37 nM for the first, 5.85 nM for the second.

Compared with `C[C@H]1CN(c2ccn(-c3ccnc(C(F)(F)F)c3)n2)C(=O)[C@@H]([C@@H](O)C(=O)Nc2ccc3c(N)noc3c2)O1` [Example 169, (R)—N-(3-aminobenzo[d]isoxazol-6-yl)-2-hydroxy-2-((2R,6S)-6-methyl-3-oxo-4-(1-(2-(trifluoromethyl)pyridin-4-yl)-1H-pyrazol-3-yl)morpholin-2-yl)acetamide], `C[C@@H]1CN(c2ccn(-c3ccnc(C(F)(F)F)c3)n2)C(=O)[C@@H]([C@@H](O)C(=O)Nc2ccc3c(N)noc3c2)O1` [Example 170, (R)—N-(3-aminobenzo[d]isoxazol-6-yl)-2-hydroxy-2-((2R,6R)-6-methyl-3-oxo-4-(1-(2-(trifluoromethyl)pyridin-4-yl)-1H-pyrazol-3-yl)morpholin-2-yl)acetamide] is 3.7-fold lower in IC50: 8.99 nM for the first, 2.42 nM for the second.

First: COc1cc(-n2ccc(N3CC(C)(C)O[C@H]([C@@H](O)C(=O)Nc4ccc5c(N)noc5c4)C3=O)n2)ccn1 [Example 171, (R)—N-(3-aminobenzo[d]isoxazol-6-yl)-2-hydroxy-2-((R)-4-(1-(2-methoxypyridin-4-yl)-1H-pyrazol-3-yl)-6,6-dimethyl-3-oxomorpholin-2-yl)acetamide]
Second: COc1cc(-n2ccc(N3CC(C)(C)O[C@H]([C@@H](O)C(=O)Nc4ccc5c(N)noc5c4)C3=O)n2)cnn1 [Example 174, (R)—N-(3-aminobenzo[d]isoxazol-6-yl)-2-hydroxy-2-((R)-4-(1-(6-methoxypyridazin-4-yl)-1H-pyrazol-3-yl)-6,6-dimethyl-3-oxomorpholin-2-yl)acetamide]
The IC50 of the first is 7.5-fold higher: 20.9 nM for the first, 2.77 nM for the second.

Compared with `CC1(C)CN(c2ccn(-c3ccnnc3)n2)C(=O)[C@@H]([C@@H](O)C(=O)Nc2ccc3c(N)noc3c2)O1` [Example 172, (R)—N-(3-aminobenzo[d]isoxazol-6-yl)-2-((R)-6,6-dimethyl-3-oxo-4-(1-(pyridazin-4-yl)-1H-pyrazol-3-yl)morpholin-2-yl)-2-hydroxyacetamide], `CC1(C)CN(c2nn(-c3ccnnc3)cc2F)C(=O)[C@@H]([C@@H](O)C(=O)Nc2ccc3c(N)noc3c2)O1` [Example 173, (R)—N-(3-aminobenzo[d]isoxazol-6-yl)-2-((R)-4-(4-fluoro-1-(pyridazin-4-yl)-1H-pyrazol-3-yl)-6,6-dimethyl-3-oxomorpholin-2-yl)-2-hydroxyacetamide] is 12-fold higher in IC50: 1.8 nM for the first, 21.1 nM for the second.
